# Measurements as given in PubChem BioAssay AID298 (DTP/NCI, 2004).
# “And” between values parts separate entries of the source, which are not always exact repeats. Identical values can stand only once. Inconclusive results are not listed.
# System: MX-1 breast xenograft, intrarenal, nude mice, tumor weight
# Test: NCI In Vivo Anticancer Drug Screen. Data for tumor model Human Mammary Carcinoma MX-1 Xenograft (intrarenal inoculation) in NU/NU BALB/C (nude) mice
# Details: endpoint: mean tumor weight change, higher = larger tumour
# In short: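 Compounds were given to mice carrying transplanted tumors, and tumor size or survival was measured. Each value is the treated-group measurement (T) divided by the vehicle-treated control-group measurement (C).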
# [1] = dose: 150.0 mg/kg/injection, schedule: Q04DX003 (ip), vehicle: saline with Tween-80
# [2] = dose: 300.0 mg/kg/injection, schedule: Q04DX003 (ip), vehicle: saline with Tween-80
# [3] = dose: 300.0 mg/kg/injection, schedule: Q04DX003 (sc), vehicle: saline
# [4] = dose: 600.0 mg/kg/injection, schedule: Q04DX003 (ip), vehicle: saline with Tween-80
# [5] = dose: 1200.0 mg/kg/injection, schedule: Q04DX003 (ip), vehicle: saline with Tween-80
smiles,measurement,setting,value
O=NN(CCCl)C(=O)NC1CCCCC1,T/C,"dose: 4.0 mg/kg/injection, schedule: Q01DX010 (ip), vehicle: saline with Tween-80",303 % of control
same,T/C,"dose: 8.0 mg/kg/injection, schedule: Q01DX010 (ip), vehicle: saline with Tween-80",248 % of control
same,T/C,"dose: 8.0 mg/kg/injection, schedule: Q01DX010 (sc), vehicle: saline with Tween-80",71 % of control
same,T/C,"dose: 12.5 mg/kg/injection, schedule: Q04DX003 (sc), vehicle: Klucel (hydroxypropylcellulose) (HPC)",66 % of control
same,T/C,"dose: 13.33 mg/kg/injection, schedule: Q04DX003 (ip), vehicle: saline with Tween-80",105 % of control
same,T/C,"dose: 16.0 mg/kg/injection, schedule: Q01DX010 (ip), vehicle: saline with Tween-80",263 % of control
same,T/C,"dose: 16.0 mg/kg/injection, schedule: Q01DX010 (sc), vehicle: saline with Tween-80",61 % of control
same,T/C,"dose: 25.0 mg/kg/injection, schedule: Q04DX003 (sc), vehicle: Klucel (hydroxypropylcellulose) (HPC)",67 % of control
same,T/C,"dose: 26.65 mg/kg/injection, schedule: Q04DX003 (ip), vehicle: saline with Tween-80",36 % of control
same,T/C,"dose: 26.66 mg/kg/injection, schedule: Q04DX003 (sc), vehicle: saline with Tween-80",64 % of control
same,T/C,"dose: 32.0 mg/kg/injection, schedule: Q01DX010 (ip), vehicle: saline with Tween-80",8 % of control
same,T/C,"dose: 32.0 mg/kg/injection, schedule: Q01DX010 (sc), vehicle: saline with Tween-80",3 % of control
same,T/C,"dose: 50.0 mg/kg/injection, schedule: Q04DX003 (sc), vehicle: Klucel (hydroxypropylcellulose) (HPC)",31 % of control
same,T/C,"dose: 53.3 mg/kg/injection, schedule: Q04DX003 (ip), vehicle: saline with Tween-80",42 % of control
same,T/C,"dose: 53.33 mg/kg/injection, schedule: Q04DX003 (sc), vehicle: saline with Tween-80",31 % of control
CCCCNP1(NCCCC)=NP(NCCCC)(NCCCC)=NP(NCCCC)(NCCCC)=NP(NCCCC)(NCCCC)=N1,T/C,[1],89 % of control
same,T/C,[2],73 % of control
C#CCNC1=C(C)C(=O)C2=C(C1=O)[C@H](COC(N)=O)[C@]1(OC)[C@@H]3N[C@@H]3CN21,T/C,"dose: 1.85 mg/kg/injection, schedule: Q04DX003 (ip), vehicle: distilled water + Tween-80",48 % of control
same,T/C,"dose: 1.88 mg/kg/injection, schedule: Q04DX003 (ip), vehicle: distilled water + Tween-80",97 % of control
same,T/C,"dose: 3.75 mg/kg/injection, schedule: Q04DX003 (ip), vehicle: distilled water + Tween-80",49 % of control and 55 % of control
COc1ccc(C=C(C(=O)CCN(C)C)C(=O)CCN(C)C)cc1,T/C,"dose: 50.0 mg/kg/injection, schedule: Q04DX003 (ip), vehicle: saline",93 % of control
same,T/C,"dose: 100.0 mg/kg/injection, schedule: Q04DX003 (ip), vehicle: saline",101 % of control
same,T/C,"dose: 200.0 mg/kg/injection, schedule: Q04DX003 (ip), vehicle: saline",96 % of control
CCCCCCCC(=O)OCC(=O)[C@]1(O)Cc2c(O)c3c(c(O)c2[C@@H](OC2CC(N)C(O)C(C)O2)C1)C(=O)c1c(OC)cccc1C3=O (stereo partly drawn),T/C,"dose: 2.0 mg/kg/injection, schedule: Q01DX010 (ip), vehicle: suspension in saline",4 % of control
same,T/C,"dose: 2.0 mg/kg/injection, schedule: Q01DX010 (sc), vehicle: saline",121 % of control
same,T/C,"dose: 2.0 mg/kg/injection, schedule: Q04DX003 (ip), vehicle: saline",53 % of control
same,T/C,"dose: 4.0 mg/kg/injection, schedule: Q01DX010 (ip), vehicle: suspension in saline",5 % of control
same,T/C,"dose: 4.0 mg/kg/injection, schedule: Q01DX010 (sc), vehicle: saline",20 % of control
same,T/C,"dose: 4.0 mg/kg/injection, schedule: Q04DX003 (ip), vehicle: saline",27 % of control
same,T/C,"dose: 8.0 mg/kg/injection, schedule: Q01DX010 (sc), vehicle: saline",2 % of control
same,T/C,"dose: 8.0 mg/kg/injection, schedule: Q04DX003 (ip), vehicle: saline",5 % of control
N#Cc1c(N)[nH]c2ccc(Sc3ccccc3)cc12,T/C,"dose: 30.0 mg/kg/injection, schedule: Q04DX003 (ip), vehicle: saline with Tween-80",92 % of control
same,T/C,"dose: 60.0 mg/kg/injection, schedule: Q04DX003 (ip), vehicle: saline with Tween-80",88 % of control
same,T/C,"dose: 120.0 mg/kg/injection, schedule: Q04DX003 (ip), vehicle: saline with Tween-80",75 % of control
COC1C(OC(=O)/C=C/C=C/C=C/C=C/C(=O)O)CCC2(CO2)C1C1(C)OC1CC=C(C)C (stereo not drawn),T/C,"dose: 150.0 mg/kg/injection, schedule: Q04DX003 (sc), vehicle: saline",102 % of control
same,T/C,[3],96 % of control
same,T/C,"dose: 600.0 mg/kg/injection, schedule: Q04DX003 (sc), vehicle: saline",62 % of control
O=C(O)CC(=O)O.[NH-]CC[NH-].[Pt+2],T/C,"dose: 25.0 mg/kg/injection, schedule: Q01DX010 (sc), vehicle: dextrose",-6 % of control
same,T/C,"dose: 50.0 mg/kg/injection, schedule: Q01DX010 (sc), vehicle: dextrose",-85 % of control
CCCC1CCC(=C2C(=O)CCC2=O)O1 (stereo not drawn),T/C,[1],68 % of control
CC(C)(O)/C=C/C(=O)[C@](C)(O)[C@H]1[C@H](O)C[C@@]2(C)[C@@H]3CC=C4[C@@H](C=C(O)C(=O)C4(C)C)[C@]3(C)C(=O)C[C@]12C,T/C,"dose: 0.25 mg/kg/injection, schedule: Q04DX003 (ip), vehicle: water",155 % of control
same,T/C,"dose: 0.5 mg/kg/injection, schedule: Q04DX003 (ip), vehicle: water",118 % of control
same,T/C,"dose: 1.0 mg/kg/injection, schedule: Q04DX003 (ip), vehicle: water",122 % of control
same,T/C,"dose: 2.0 mg/kg/injection, schedule: Q04DX003 (ip), vehicle: water",86 % of control
COc1cc(/C=C/[N+](=O)[O-])cc(Br)c1OC,T/C,"dose: 6.25 mg/kg/injection, schedule: Q04DX003 (ip), vehicle: saline with Tween-80",81 % of control
same,T/C,"dose: 12.5 mg/kg/injection, schedule: Q04DX003 (ip), vehicle: saline with Tween-80",104 % of control
same,T/C,"dose: 25.0 mg/kg/injection, schedule: Q04DX003 (ip), vehicle: saline with Tween-80",92 % of control and 105 % of control
same,T/C,"dose: 50.0 mg/kg/injection, schedule: Q04DX003 (ip), vehicle: saline with Tween-80",96 % of control
CN=S(=O)(OCCCCCOS(=O)(=NC)c1ccc(C)cc1)c1ccc(C)cc1 (stereo not drawn),T/C,"dose: 75.0 mg/kg/injection, schedule: Q04DX003 (sc), vehicle: saline with Tween-80",86 % of control
same,T/C,"dose: 150.0 mg/kg/injection, schedule: Q04DX003 (sc), vehicle: saline with Tween-80",61 % of control
N=C(N)c1ccc(N=NNc2ccc(C(=N)N)cc2)cc1,T/C,[1],83 % of control
CCOC(=O)Nc1cc2c(c(N)n1)N=C(c1ccccc1)CO2,T/C,[1],73 % of control
same,T/C,[2],80 % of control
same,T/C,[4],51 % of control
same,T/C,[5],68 % of control
Cc1cc2c(C(C)C)c(O)c(O)c(C=NCCO)c2c(O)c1-c1c(C)cc2c(C(C)C)c(O)c(O)c(C=NCCO)c2c1O,T/C,"dose: 75.0 mg/kg/injection, schedule: Q04DX003 (ip), vehicle: saline with Tween-80",111 % of control
same,T/C,[1],86 % of control
same,T/C,[2],58 % of control
same,T/C,[4],97 % of control
same,T/C,[5],69 % of control
O=CC(O)C(O)C(O)C(O)CO (stereo not drawn),T/C,"dose: 75.0 mg/kg/injection, schedule: Q04DX003 (ip), vehicle: saline",72 % of control
same,T/C,"dose: 150.0 mg/kg/injection, schedule: Q04DX003 (ip), vehicle: saline",113 % of control
same,T/C,"dose: 300.0 mg/kg/injection, schedule: Q04DX003 (ip), vehicle: saline",65 % of control
same,T/C,"dose: 600.0 mg/kg/injection, schedule: Q04DX003 (ip), vehicle: saline",93 % of control
same,T/C,"dose: 1200.0 mg/kg/injection, schedule: Q04DX003 (ip), vehicle: saline",59 % of control
CN(C)[C@@H]1C(=O)C(C(N)=O)=C(O)[C@@]2(O)C(=O)C3=C(O)c4c(O)ccc(Cl)c4[C@@](C)(O)[C@H]3C[C@@H]12,T/C,[3],155 % of control
same,T/C,"dose: 1200.0 mg/kg/injection, schedule: Q04DX003 (sc), vehicle: saline",113 % of control
same,T/C,"dose: 2400.0 mg/kg/injection, schedule: Q04DX003 (sc), vehicle: saline",70 % of control
CC(=O)O[C@H]1C(=O)[C@@]2(C)C(C(OC(=O)c3ccccc3)[C@]3(O)C[C@H](OC(=O)C(O)C(NC(=O)c4ccccc4)c4ccccc4)C(C)=C1C3(C)C)C1(OC(C)=O)COC1C[C@@H]2OC(=O)CN(C)C (stereo partly drawn) (tested in a mixture with another compound),T/C,"dose: 4.13 mg/kg/injection, schedule: Q01DX009 (ip), vehicle: water",34 % of control
same,T/C,"dose: 8.25 mg/kg/injection, schedule: Q01DX009 (ip), vehicle: water",23 % of control
same,T/C,"dose: 16.5 mg/kg/injection, schedule: Q01DX009 (ip), vehicle: water",-93 % of control
same,T/C,"dose: 33.0 mg/kg/injection, schedule: Q01DX009 (ip), vehicle: water",-100 % of control
COc1cc2c(c3c1c(=O)c1cccc(F)c1n3C)C=CC(C)(C)O2,T/C,"dose: 75.0 mg/kg/injection, schedule: Q04DX003 (ip), vehicle: Klucel (hydroxypropylcellulose) (HPC)",46 % of control
